Laboratory results reported in US8143288B2, “Inhibitors of HCV replication” (priority 2005, dated 2012).
pEC50: −log10 of the molar value. Where two headings read alike, the source gives them in different places.

Tests used:
[1] = Alamar blue cytotoxicity (CC50) in Y > H replicon cells; type: cell-based; conditions: human
Description: (§1) At subsequent various times (typically 72 hours), 10% final volume Alamar blue (Cat#00-100, Trek Diagnostics, Cleveland, Ohio) was added to each well. The plates were returned to the incubator for 5 hours and then read in the Cytoflour (PE Biosystems) to determine Alamar blue conversion in each well as a measure of cellular toxicity. After reading the Alamar blue fluorescence following the manufacturers directions, plates were rinsed 2× with PBS and then used for FRET assay by the addition of 30 μl of the FRET peptide assay reagent (described above) per well. The plate was then placed into the Cytoflour 4000 instrument which had been set to 340 excite/490 emission, automatic mode for 20 cycles and the plate read in a kinetic mode. Typically, the signal to noise using an endpoint analysis after the reads was at least three-fold.
The assay was further adapted to accommodate titrations of compounds to determine EC50 and CC50 values.
(§2) To determine if the Y2065H change was necessary and sufficient to confer resistance to Compound A, the single mutation was generated in the HCV 1b-377-neo replicon. […] To further verify this, colonies formed in the absence of Compound A were isolated and expanded for both the wild-type and Y2065H clones. Sensitivity of these cells to Compound A was then examined using the FRET assay.

HCV replicon = assay: Combination studies in HCV replicon system (FRET, method of Chou); type: cell-based; conditions: for combination response: in combination with Example 3, replicon cells, 72 hours
Description: Since clinical drug resistance often develops in viral infections following single-agent therapies, there is a need to assess the additive, antagonistic, or synergistic properties of combination therapies. […] Drugs were tested at eleven concentrations each, diluted in DMSO by 3-fold dilutions. The highest concentration used for the four HCV inhibitors was 0.1 μM for Example 3 and 20 μM for the three other HCV antivirals. […] The drugs were tested as monotherapies and in combination with Example 3 at various concentration ratios. Cells were exposed to compounds for 72 hours and the amount of HCV inhibition was then determined using the FRET assay. The potential cytotoxicities of these combined agents were also analyzed in parallel by Alamar blue staining. The degree of antagonism or synergy was determined over a range of drug concentrations, and the combination response curves were fit to assess the antiviral effects of the drug treatment combinations. The concentration ratios were analyzed using the method of Chou. Table 5 reports the combination indices (CI) and the asymptotic confidence intervals at the different concentration ratios. All combination indices were tested for departure from additivity using isobologram methods.

[2] = system: Y2065H HCV 1b-377-neo replicon cells; assay: FRET assay on Y2065H (Y > H) replicon cells; type: cell-based; conditions: for pEC50: Hepatitis C virus
[3] = Alamar blue cytotoxicity (CC50) in replicon cells; type: cell-based; conditions: human, wild-type HCV 1b-377-neo replicon cells
Description: as §1
Compound analysis depended upon the quantification of the relative HCV replicon inhibition and the relative cytotoxicity values. To calculate cytotoxicity values, the average alamar blue fluorescence signals from the control wells in row 11 were set as 100% non-toxic. The individual signals in each of the compound test wells were then divided by the average control signal and multiplied by 100% to determine […]. […]

[4] = system: HCV 1b-377-neo replicon cells; assay: HCV replicon FRET assay; type: cell-based; conditions: Hepatitis C virus
[5] = system: Compound A-r replicon cells; assay: FRET assay on selected Compound A-r replicon cells; type: cell-based, HCV; conditions: judged by the FRET assay; cells selected with Compound A 5-6 weeks
Description: HCV 1b-377-neo replicon cells were plated in 100-mm plates with ˜25% confluence after 24 hour seeding. Compound A (prepared by the procedure described in WO04/014852, published Feb. 19, 2004) was added at the final concentrations of 5, 10 and 20 μM in the presence of G418. Wild type replicon cells 15 in the absence of the compound were used as a control. After 5-6 weeks, both wt replicon cells and selected cells were tested for their sensitivity to Compound A. In addition, cell lines derived from individual colonies from different concentrations of selective Compound A were also isolated, expanded and tested. In the initial test, approximately 60-fold resistance, judged by the FRET assay, was observed between wt replicon cells and selected replicon cells (designated as Compound A-r replicon cells).

[6] = system: Y2065H HCV 1b-377-neo replicon; assay: Colony formation, Y2065H replicon RNA in Huh-7 cells; type: cell-based; conditions: Y > H RNA transfected, 2 μM Compound A, 3 weeks G418 selection
Description: as §2

[7] = system: wild-type HCV 1b-377-neo replicon; assay: Colony formation, wild-type replicon RNA in Huh-7 cells; type: cell-based; conditions: 2 μM Compound A
Description: as §2

HCV = HCV therapy, Poynard et al. 1998; cited from earlier work
[8] = Wild-type replicon cells, FRET assay, read-out: EC50
[9] = monotherapy, 72 hours, FRET assay, read-out: EC50 in monotherapy
[10] = combined with Example 3, molar ratio 1:1
[11] = combined with Example 3, molar ratio 1:2.5
[12] = combined with Example 3, molar ratio 2.5:1

Compound: O=C(Nc1ccc(/C=C/c2ccc(NC(=O)[C@@H]3CCCN3C(=O)Cc3ccccc3)cc2)cc1)[C@@H]1CCCN1C(=O)Cc1ccccc1 [Example 3]
- CC50 at 72 h [1]: > 5 µM
- combination response (HCV replicon): no significant drug antagonism
- pEC50 [2]: < 5.30
- window of resistance in Y2065H cells as compared to wild-type cells ([2]; Y2065H vs wild-type cells): > 100 fold
- CC50 at 72 h [3]: > 5 µM
- pEC50 ([4]; HCV replicon, read-out: Activity (EC50)): 7.05 to 10.00
- pEC50 [4, 8]: > 7.30
- pEC50 [4, 9]: > 7.30

Compound: C[C@H](NC(=O)OCc1ccccc1)C(=O)Nc1ccc(C2S/C(=N\c3cccc(F)c3)N(Cc3ccco3)C2=O)cc1 (stereo partly shown) [Compound A, reference compound]
- resistance between wt replicon cells and selected replicon cells [5]: approximately 60 fold
- CC50 at 72 h [1]: > 5 µM
- Number of colonies [6]: 10
- pEC50 [2]: < 5.30
- CC50 at 72 h [3]: > 5 µM
- pEC50 [4, 8]: 5.82
- Number of colonies ([7]; Wild-type RNA transfected, 3 weeks G418 selection): 3
- reduction in colony number ([7]; wild-type replicon RNA): 95%

Compound: C=CC1CC1(NC(=O)[C@@H]1C[C@@H](Oc2cc(-c3ccccc3)nc3cc(OC)ccc23)CN1C(=O)C(NC(=O)OC(C)(C)C)C(C)(C)C)C(=O)O (stereo partly shown) [protease inhibitor]
- CI at HCV inhibition of: 75% (HCV replicon; [10]): 0.96 +/− 0.38
- CI at HCV inhibition of: 90% (HCV replicon; [10]): 0.91 +/− 0.55
- CI at HCV inhibition of: 95% (HCV replicon; [10]): 0.88 +/− 0.69
- Overall Result (HCV replicon; [10]): Additive
- CI at HCV inhibition of: 50% (HCV replicon; combined with Example 3, molar ratio 1:1 (first number Example 3)): 1.05 +/− 0.29
- CI at HCV inhibition of: 75% (HCV replicon; [11]): 0.78 +/− 0.22
- CI at HCV inhibition of: 90% (HCV replicon; [11]): 0.76 +/− 0.33
- CI at HCV inhibition of: 95% (HCV replicon; [11]): 0.75 +/− 0.43
- Overall Result (HCV replicon; [11]): Synergistic/Additive
- CI at HCV inhibition of: 50% (HCV replicon; combined with Example 3, molar ratio 1:2.5 (first number Example 3)): 0.82 +/− 0.17
- CI at HCV inhibition of: 75% (HCV replicon; [12]): 0.88 +/− 0.27
- CI at HCV inhibition of: 90% (HCV replicon; [12]): 0.81 +/− 0.40
- CI at HCV inhibition of: 95% (HCV replicon; [12]): 0.77 +/− 0.49
- Overall Result (HCV replicon; [12]): Additive
- CI at HCV inhibition of: 50% (HCV replicon; combined with Example 3, molar ratio 2.5:1 (first number Example 3)): 0.97 +/− 0.22
- combination response (HCV replicon): additive response
- pEC50 [4, 9]: 6.48

Compound: alpha-interferon and ribavirin
- sustained efficacy (HCV): 40 % of patients
